Consider 49 compounds from patent US11634412B2, “3-phosphoglycerate dehydrogenase inhibitors and uses thereof” (Raze Therapeutics, Inc., priority 2016, dated 2023).

By IC50 is commonly meant the concentration that gives 50% inhibition. A low value points to greater potency in that assay.

One experiment concerns the target T1, Full length (FL) 3-Phosphoglycerate Dehydrogenase (PHGDH) (Homo sapiens, UniProt O43175).
T1 construct: Full length (FL) 3-Phosphoglycerate Dehydrogenase (PHGDH) Diaphorase coupled assay (500 uM NAD)
T1 sequence (O43175 1-533): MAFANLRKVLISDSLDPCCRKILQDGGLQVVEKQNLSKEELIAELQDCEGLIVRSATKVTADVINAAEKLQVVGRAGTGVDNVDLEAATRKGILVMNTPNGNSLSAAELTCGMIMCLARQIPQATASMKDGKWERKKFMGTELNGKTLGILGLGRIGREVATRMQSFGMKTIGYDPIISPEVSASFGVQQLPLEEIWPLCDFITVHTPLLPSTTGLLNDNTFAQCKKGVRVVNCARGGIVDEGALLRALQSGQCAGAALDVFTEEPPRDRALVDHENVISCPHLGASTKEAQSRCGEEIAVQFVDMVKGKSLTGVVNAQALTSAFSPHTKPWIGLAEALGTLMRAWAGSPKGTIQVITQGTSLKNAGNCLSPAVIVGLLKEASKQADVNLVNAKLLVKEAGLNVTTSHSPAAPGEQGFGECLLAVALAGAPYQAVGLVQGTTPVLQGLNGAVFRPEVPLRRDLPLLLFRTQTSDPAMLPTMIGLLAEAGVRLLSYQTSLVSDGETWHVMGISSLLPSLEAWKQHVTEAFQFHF
Put plainly: Full length (FL) PHGDH Diaphorase coupled assay (20 uM NAD). It is filed as biochemical. As to conditions: full-length PHGDH 10 nM, 30° C. 60 minutes, resorufin fluorescence. The protocol:
(§1) PHGDH activity was determined by detecting the NADH produced during the reaction. Diaphorase was used to catalyze the oxidation of NADH with the concomitant reduction of resazurin to the fluorescent product resorufin. Resorufin fluorescence quantitatively reflected the production of NADH by the PHGDH reaction. To drive the forward reaction, two enzymes in the serine synthesis pathway subsequent to PHGDH, Phosphoserine aminotransferase (PSAT1) and phosphoserine phosphatase (PSPH) were also added to the reaction.
`Cn1c(C(=O)NC2(c3ccc(-c4nnn[nH]4)cc3)CCOC2)cc2c(Cl)c(Cl)ccc21` (racemic) [I-128 e148, (±)-4,5-Dichloro-1-methyl-N-[3-[4-(1H-tetrazol-5-yl)phenyl]tetrahydro-furan-3-yl]indole-2-carboxamide] displayed an IC50 of 0.001 to 1 µM. On the same count and under the same terms, the figure for `Cn1c(C(=O)NC2(c3ccc(CC(=O)O)cc3)CCOC2)cc2c(Cl)c(Cl)ccc21` (racemic) [I-129 e149, (±)-2-[4-[3-[(4,5-Dichloro-1-methyl-indole-2-carbonyl)amino]tetrahydrofuran-3-yl]phenyl]acetic acid] is 0.001 to 1 µM. The same measure, in the same setting: the figure for `CN1CCC(NC(=O)c2cc3c(Cl)c(Cl)ccc3n2C)(c2ccc(C(=O)O)cc2)C1` (racemic) [I-130 e17] is 0.001 to 1 µM.

In a further experiment the target is T1, Full length (FL) 3-Phosphoglycerate Dehydrogenase (PHGDH). The experiment can be described thus: Full length (FL) PHGDH Diaphorase coupled assay (500 uM NAD). Format: biochemical. The settings on record: full-length PHGDH 5 nM, 30° C. 60 minutes, resorufin fluorescence. Here is the method:
Full length (FL) 3-Phosphoglycerate Dehydrogenase (PHGDH) Diaphorase coupled assay (500 uM NAD)
as §1
Briefly, serial dilution of compounds were incubated in a volume of 20 μL in 384 well plates with the assay mixture containing 5 nM PHGDH, 500 nM PSAT1, 500 nM PSPH, 500 μM NAD^+, 80 uM 3-phosphoglycerate, 1 mM glutamate, 57 uM Resazurin and 0.2 mg/ml Diaphorase in assay buffer containing 50 mM Trisethanoloamine (TEA) pH8.0, 10 mM MgCl2, 0.01% Tween-20 and 0.05% Bovine Serum Albumin (BSA). The plate was then incubated at 30° C. for 60 minutes and resorufin fluorescence was measured at emission wavelength 598 nm following excitation at 525 nm. The positive control consisted of the complete reaction mixture with 4% DMSO and was set to 0% inhibition.
In the case of `CCN1CCC(NC(=O)c2cc3c(Cl)c(Cl)ccc3n2C)(c2ccc(C(=O)O)cc2)C1` (racemic) [I-126 e18], the IC50 lay within 5 to 10 µM.

The compound `COc1ccc2c(cc(C(=O)NC3(c4ccc(C(C(=O)O)C5CCCCC5)cc4)COC3)n2C)c1Cl` (racemic) [I-156 e119] registered a concentration for half-maximal inhibition (IC50) of 0.001 to 1 µM. `COc1ccc2c(cc(C(=O)NC3(c4ccc(C(C(=O)O)C5CCNCC5)cc4)COC3)n2C)c1Cl` (racemic) [I-159 e121] yielded an IC50 of 0.001 to 1 µM.

`COc1ccc2c(cc(C(=O)NC3(c4ccc(C(C(=O)O)C5CCC(O)CC5)cc4)COC3)n2C)c1Cl` (racemic) [I-160 e138, (±)-2-[4-[3-[(4-Chloro-5-methoxy-1-methyl-indole-2-carbonyl)amino]oxetan-3-yl]phenyl]-2-(4-hydroxycyclohexyl)acetic acid] yielded a 50% inhibitory concentration (IC50) of 0.001 to 1 µM. Same read-out and setting: the figure for `COc1cc2c(cc(C(=O)NC3(c4ccc(C(C(=O)O)C5CC5)cc4)CCOC3)n2C)c(Cl)c1Cl` (racemic) [I-163 e163, (±)-2-Cyclopropyl-2-(4-(3-(4,5-dichloro-6-methoxy-1-methyl-1H-indole-2-carboxamido)tetrahydrofuran-3-yl)phenyl)acetic acid] is 0.001 to 1 µM; for `C[C@@H](C(=O)O)c1ccc(C2(NC(=O)c3cc4c(Cl)c(Cl)ccc4n3C)COC2)cc1` (single isomer, unassigned) [I-34 or I-35 e161 peak 2] it is 0.001 to 1 µM. Still for that read-out and setting: the result for `C[C@H](C(=O)O)c1ccc(C2(NC(=O)c3cc4c(Cl)c(Cl)ccc4n3C)COC2)cc1` (single isomer, unassigned) [I-35 or I-34 e160 peak 1] reads 0.001 to 1 µM; that for `Cn1c(C(=O)N[C@@]2(c3ccc(CC(=O)O)cc3)CCOC2)cc2c(Cl)c(Cl)ccc21` (single isomer, unassigned) [I-108 or I-109 e151 peak 2], 0.001 to 1 µM; that for `Cn1c(C(=O)N[C@]2(c3ccc(CC(=O)O)cc3)CCOC2)cc2c(Cl)c(Cl)ccc21` (single isomer, unassigned) [I-109 or I-108 e150 peak 1], 0.001 to 1 µM. Same read-out and setting: the figure for `COc1ccc2c(cc(C(=O)NC3(c4ccc(C(CCCO)C(=O)O)cc4)COC3)n2C)c1Cl` (stereo not shown) [I-11 e72] is 0.001 to 1 µM; for `COc1ccc2c(cc(C(=O)NC3(c4ccc(C(C)(C)C(=O)O)cc4)COC3)n2C)c1Cl` [I-27 e110] it is 0.001 to 1 µM. Regarding `Cn1c(C(=O)NC2(c3ccc(C4(C(=O)O)CC4)cc3)COC2)cc2c(Cl)c(Cl)ccc21` [I-28 e108], the IC50 was 0.001 to 1 µM.

Regarding `COc1ccc2c(cc(C(=O)NC3(c4ccc(CC(=O)O)cc4Cl)COC3)n2C)c1Cl` [I-32 e64], the IC50 fell in the range of 0.001 to 1 µM. Turning to `CC(C(=O)O)c1ccc(C2(NC(=O)c3cc4c(Cl)c(Cl)ccc4n3C)COC2)c(Cl)c1` (stereo not shown) [I-33 e62], the IC50 is 0.001 to 1 µM. The same measure, in the same setting: the figure for `Cn1c(C(=O)NC2(c3ccc(C(C)(C)C(=O)O)cc3)COC2)cc2c(Cl)c(Cl)ccc21` [I-36 e107] is 0.001 to 1 µM; for `Cn1c(C(=O)NC2(c3ccc(C(C)(C)C(=O)O)cc3F)COC2)cc2c(Cl)c(Cl)ccc21` [I-37 e109] it is 0.001 to 1 µM; for `Cn1c(C(=O)NC2(c3ccc(Cc4nnn[nH]4)cc3)COC2)cc2c(Cl)c(Cl)ccc21` [I-41 e92] it is 0.001 to 1 µM.

In turn, `COc1cc2c(cc(C(=O)NC3(c4ccc(C(=O)O)cc4Cl)COC3)n2C)c(Cl)c1F` [I-44 e76] showed an IC50 of 0.001 to 1 µM.

`COc1cc2c(cc(C(=O)NC3(c4ccc(C(=O)O)cc4C)COC3)n2C)c(Cl)c1C` [I-45 e74]: the IC50 lay within 0.001 to 1 µM. Same read-out and setting: the result for `COc1cc2c(cc(C(=O)NC3(c4ccc(C(=O)O)cc4Cl)COC3)n2C)c(Cl)c1C` [I-46 e73] reads 0.001 to 1 µM; that for `COc1cc2c(cc(C(=O)NC3(c4ccc(C(=O)O)cc4C)COC3)n2C)c(Cl)c1F` [I-47 e77], 0.001 to 1 µM.

As to `COc1cc2c(cc(C(=O)NC3(c4ccc(C(C)C(=O)O)cc4)COC3)n2C)c(Cl)c1Cl` (stereo not shown) [I-48 e71], the IC50 lay within 0.001 to 1 µM. For the compound `COc1cc2c(cc(C(=O)NC3(c4ccc(C(=O)O)cc4F)COC3)n2C)c(Cl)c1C` [I-50 e75], the IC50 lay within 0.001 to 1 µM. On the same count and under the same terms, the figure for `COc1cc2c(cc(C(=O)NC3(c4ccc(C(=O)O)cc4C)COC3)n2C)c(Cl)c1Cl` [I-51 e68] is 0.001 to 1 µM; for `COc1cc2c(cc(C(=O)NC3(c4ccc(C(=O)O)cc4F)COC3)n2C)c(Cl)c1F` [I-56 e78] it is 0.001 to 1 µM; for `COc1ccc2c(cc(C(=O)NC3(c4ccc(C(=O)O)cc4C)COC3)n2C)c1Cl` [I-60 e65] it is 0.001 to 1 µM. The same measure, in the same setting: the result for `COc1cc2c(cc(C(=O)NC3(c4ccc(CC(=O)O)cc4F)COC3)n2C)c(Cl)c1F` [I-61 e47] reads 0.001 to 1 µM. On the same count and under the same terms, the figure for `COc1cc2c(cc(C(=O)NC3(c4ccc(CC(=O)O)cc4F)COC3)n2C)c(Cl)c1C` [I-62 e46] is 0.001 to 1 µM. In turn, `Cc1ccc2c(cc(C(=O)NC3(c4ccc(CC(=O)O)cc4F)COC3)n2C)c1Cl` [I-63 e44] returned a half-inhibitory concentration (IC50) of 0.001 to 1 µM. On the same count and under the same terms, the figure for `COc1ccc2c(cc(C(=O)NC3(c4ccc(C(=O)O)cc4Cl)COC3)n2C)c1Cl` [I-65 e69] is 0.001 to 1 µM. The same measure, in the same setting: the figure for `COc1cc2c(cc(C(=O)NC3(c4ccc(C(=O)O)cc4Cl)COC3)n2C)c(Cl)c1Cl` [I-66 e67] is 0.001 to 1 µM. On the same count and under the same terms, the result for `COc1cc(CC(=O)O)ccc1C1(NC(=O)c2cc3c(Cl)c(Cl)ccc3n2C)COC1` [I-69 e52] reads 5 to 10 µM; that for `CC(C(=O)O)c1ccc(C2(NC(=O)c3cc4c(Cl)c(Cl)ccc4n3C)COC2)c(F)c1` (stereo not shown) [I-70 e61], 0.001 to 1 µM. In the case of `COc1ccc2c(cc(C(=O)NC3(c4ccc(C(=O)O)cc4F)COC3)n2C)c1Cl` [I-75 e66], the IC50 was in the range of 0.001 to 1 µM. Still for that read-out and setting: the result for `COc1cc2c(cc(C(=O)NC3(c4ccc(C(=O)O)cc4F)COC3)n2C)c(Cl)c1Cl` [I-76 e42] reads 0.001 to 1 µM; that for `Cn1c(C(=O)NC2(c3ccc(C(=O)O)cc3F)COC2)cc2c(Cl)c(Cl)ccc21` [I-79 e41], 0.001 to 1 µM; that for `Cc1cc(CC(=O)O)ccc1C1(NC(=O)c2cc3c(Cl)c(Cl)ccc3n2C)COC1` [I-82 e51], 0.001 to 1 µM. Same read-out and setting: the figure for `Cc1cc(C(=O)O)ccc1C1(NC(=O)c2cc3c(Cl)c(Cl)ccc3n2C)COC1` [I-83 e50] is 0.001 to 1 µM; for `Cn1c(C(=O)NC2(c3ccc(CC(=O)O)cc3Cl)COC2)cc2c(Cl)c(Cl)ccc21` [I-84 e49] it is 0.001 to 1 µM; for `Cn1c(C(=O)NC2(c3ccc(C(=O)O)cc3Cl)COC2)cc2c(Cl)c(Cl)ccc21` [I-85 e48] it is 0.001 to 1 µM. Still for that read-out and setting: the result for `COc1cc2c(cc(C(=O)NC3(c4ccc(CC(=O)O)cc4F)COC3)n2C)c(Cl)c1Cl` [I-86 e45] reads 0.001 to 1 µM. `Cn1c(C(=O)NC2(c3ccc(CC(=O)O)cc3F)COC2)cc2c(Cl)c(Cl)ccc21` [I-90 e43] had an IC50 of 0.001 to 1 µM. On the same count and under the same terms, the result for `COc1ccc2c(cc(C(=O)NC3(c4ccc(CC(=O)O)cc4)COC3)n2C)c1Cl` [I-103 e39] reads 0.001 to 1 µM; that for `CCC(=O)NS(=O)(=O)c1ccc(C2(NC(=O)c3cc4c(Cl)c(OC)ccc4n3C)COC2)cc1` [I-161 e164, 4-Chloro-5-methoxy-1-methyl-N-(3-(4-(N-propanoylsulfamoyl)phenyl)-oxetan-3-yl)-1H-indole-2-carboxamide], 0.001 to 1 µM; that for `COc1ccc2c(cc(C(=O)NC3(c4ccc(C(=O)NS(C)(=O)=O)cc4)COC3)n2C)c1Cl` [I-162 e165, 4-Chloro-5-methoxy-1-methyl-N-(3-(4-((methylsulfonyl)carbamoyl)-phenyl)oxetan-3-yl)-1H-indole-2-carboxamide], 0.001 to 1 µM.

`COc1ccc2c(cc(C(=O)NC3(c4ccc(S(=O)(=O)NC(C)=O)cc4)COC3)n2C)c1Cl` [I-164 e88] registered a half-inhibitory concentration (IC50) of 0.001 to 1 µM.
